Reference: article PMC3962778 (Journal of medicinal chemistry, 2014)
pEC50: −log10 of the molar value. “And” between values parts separate entries of the source, which are not always exact repeats. Equal entries are not always repeated. Where two headings read alike, the source gives them in different places. Values belong to the molecule of their own block, whether it stands above or below them.

Legend:
[1] = system: T. brucei brucei (strain BF427); experiment: In vitro parasite growth arrest assay; type: cell-based, Trypanosoma brucei brucei; conditions: for pEC50: Trypanosoma brucei
[2] = system: T. brucei rhodesiense STIB 900 strain; experiment: Anti-parasite efficacy studies in mice; conditions: for Cured / Day of euthanasia: mice, oral, 5 days
[3] = 5 mg/kg, 2 doses per day, Exp 1 and Exp 2
[4] = 20 mg/kg, 1 dose per day, Exp 2
[5] = 20 mg/kg, 2 doses per day, Exp 1
[6] = 50 mg/kg, 1 dose per day, Exp 1

Structure (SMILES): Nc1ccc(Cl)c(-c2nc3ncccc3o2)c1 [Compound 36]
inhibition of T. brucei growth in vitro ([1]; tested up to 20 μM): no inhibition

Structure (SMILES): O=C(Nc1ccc(F)c(-c2nc3cc(-c4ccccc4)cnc3[nH]2)c1)N1CCCC1 [Compound 64]
lowest oral dose at which infected mice were cured (dosed orally down to) ([2]; T. brucei infected mice): 2.5 mg/kg
Cured ([2]; 1 mg/kg, 2 doses per day, Exp 2): 0 of 5 and 0/5
Cured ([2]; 2.5 mg/kg, 2 doses per day, Exp 2): 2 of 5 and 2/5
Cured ([2]; 5 mg/kg, 1 dose per day, Exp 2): 2 of 5 and 2/5
Cured [2, 3]: all mice were cured and 5/5
Day of euthanasia [2, 3]: 60
Cured [2, 4]: Cures in all mice and 5/5
Day of euthanasia [2, 4]: 60
Cured [2, 5]: Cures in all mice and 5/5
Day of euthanasia [2, 5]: 60
Cured [2, 6]: Cures in all mice and 5/5
Day of euthanasia [2, 6]: 60
Cured ([2]; 50 mg/kg, 2 doses per day, Exp 1): Cures in all mice and 5/5
Day of euthanasia ([2]; 50 mg/kg, 2 doses per day, Exp 1, day 60 = cured): 60
extent of growth inhibition of T. brucei in vitro [1]: complete growth inhibition

pEC50 ([1]; read-out: EC50, concentration of compound required to inhibit growth by 50%): 8.77
pEC50 ([1]; read-out: EC50 against T. brucei in vitro): 8.92
Structure (SMILES): N=C(N)c1ccc(OCCCCCOc2ccc(C(=N)N)cc2)cc1 [Pentamidine, reference compound]
